Like-named read-outs stand apart in the source and are kept apart here. Marks after values point to notes of the source that are not given here.
Experiments:
[1] = target: T1, hCB1 receptor (Homo sapiens, UniProt P21554); test: competitive [3H]CP‐55940 radioligand binding assay (hCB1 receptor affinity); conditions: Ki [nM] (95% CI), [3H]CP‐55940 competition, hCB1 membrane preparations (HEK293‐EBNA), Cheng–Prusoff; 95% CI in brackets
Procedure: (§1) Receptor assays were performed on three different days and each concentration was tested in duplicate.
From the IC50, the respective Ki values were calculated using the Cheng–Prusoff equation [39].

[2] = occurrence of SCRAs in intoxication samples of the prospective study; design: species or system human; conditions: 2013 to 2021
From the text: For this study, the 10 SCRAs (AB‐[…], ADB‐[…], AB‐FUBINACA, FUB‐AMB, Cumyl‐PEGACLONE, MDMB‐4en‐PINACA, MDMB‐CHMICA, 5F‐MDMB‐PICA, 5F‐ADB and 5F‐PB‐22) which were most frequently detected in intoxications in a prospective observational study during the time period of 2013 to 2021 were selected (see Table 1). Additionally, JWH‐210, a model compound representative of the early SCRAs, along with two substances prevalent in screenings during years 2019/2020 (5F‐Cumyl‐PEGACLONE and 4F‐MDMB‐BICA), were included in this study (see Tables S2–S7). […] JWH‐018 was also included as a reference compound because of its historical use in this capacity. Including both reference compounds facilitates direct comparison with previously published data, thereby enhancing the relevance and interpretability of the results obtained in the present study. Information on the origin of the test and reference compounds and all chemicals used in this study can be found in Table S1.
The data on intoxication cases used for the development of this risk score were obtained from a prospective study. This study included patients who were treated in an emergency department room following the consumption of an NPS. Clinical symptoms and follow‐up information were documented using a structured questionnaire completed by the attending physicians. The methodology has been previously published. Residual serum (obtained from venous blood) and urine samples, accompanied by the completed questionnaires, were sent to the Poisons Information Center Freiburg for further analysis. The toxicological analyses of serum and urine samples were conducted at the Institute of Forensic Medicine Freiburg. No data was available on previous consumption patterns or potential development of tolerance after continued misuse. The study was conducted in accordance with the Declaration of Helsinki and approved by the regional ethics committee of the University of Freiburg (no. 235/13_130683). The intoxication cases included in this study are those in which SCRA use was confirmed by liquid chromatography tandem mass spectrometry (LC–MS/MS).

[3] = risk score from prevalence in routine forensic samples and intoxication cases (G1, PSS, TSS); design: species or system human
From the text: Therefore, higher values indicate substances with a higher risk. […] To take into account the severity of symptoms and the contribution of the specific NPS, two further summands were introduced. The first is based on the PSS, the second on the TSS. Again, higher values were associated with more severe symptoms and a stronger role of the NPS in causing the symptoms.
The risk score is composed of three components (parts G1, G2 and G3) and was designed as follows: (1) Gx=G1x+G2x+G3x,
Equation 2 takes into consideration several components: the number of intoxications with SCRA x in quarter k over the total number of intoxications of all investigated SCRAs in the same quarter; the number of serum/blood samples positive for SCRA x over the total number of serum/blood samples positive for all SCRAs plus the number of urine samples positive for SCRA x over the total number of urine samples positive for all SCRAs (this is divided by two to account for the two different sample types); and the number of quarters in which the SCRA x was prevalent. (2) G1x=∑k=1gak/bk/ck/dk+ek/fk/2/h+i
Consequently, equation 2 was mathematically rearranged. To further simplify the equation and reduce the formula signs, in equation 3 the following simplifications were taken: a/b=ai , c/d=as and e/f=au .
The sum of these quotients was divided by the number of all prevalent quarters (q p ). Prevalent quarters were defined as quarters in which on average the substance was detected in more than 5% of the positive serum and urine samples. If a poisoning occurred in a quarter in which the substance was not prevalent, the number of these quarters was added (q i ). This part of the score has similarities with an OR [42]. If the proportion of routine samples in a given quarter in which an intoxication with the respective substance occurred was zero (a s + a u = 0), a value of 0.01 was used for that quarter in the calculation of the quotient to avoid division by zero.
(§2) For part G2, the severity of the intoxication caused by the respective SCRA x was assessed on the basis of reported symptoms and follow‐up information using the PSS [20]. The PSS classifies the intoxication severity into five levels: (0) no, (1) mild, (2) moderate, (3) severe, and (4) fatal intoxication. […] For this purpose, the mean value of the PSS of all intoxications with the respective SCRA x was calculated ( G2x) .
(§3) For part G3, the involvement of the SCRA in the respective intoxications was assessed. This was evaluated on the basis of the TSS [21]. Elliott et al. developed the TSS to assess and classify the contribution of NPS in fatalities. In the present study, the TSS was determined to weigh the involvement of the investigated SCRA in the intoxication and the contribution of the SCRA to the observed symptoms. To determine the TSS value, factors such as the determined concentration of the SCRA, the presence of other recreational drugs or medicinal drugs, the general health of the patient and the consumption circumstances need to be considered. […] In cases with more than one drug detected, a TSS of 3 was only assigned where other compounds were present at concentrations below the range in which relevant effects are to be expected.
For the risk score, the mean value of the TSS of all intoxications with substance x was calculated ( G3x) . Analogous to the value of G2x , the value of G3x can theoretically be between 1 and 3. With a value of ‘1’, substance x was not mainly responsible for the symptoms in all of the intoxications (low level of significance), and with a value of ‘3’, it was the main cause in every poisoning in which it was detected.

[4] = clinical symptoms, PSS and TSS assessment of individual intoxication cases; type: in vivo, human; design: key to PSS: 0: no; 1: mild; 2: moderate; 3: severe; 4: fatal intoxication
Procedure: Forty‐eight cases were included in the present study.
The PSS was determined based on the described symptoms.
as §2, §3

[5] = target: T1, hCB1 receptor; conditions: ref Wouters et al. [29], cited from earlier work
[6] = target: T1, hCB1 receptor; test: functional [35S]GTPγS hCB1 activation assay; type: biochemical
Procedure: as §1

T1 sequence (P21554 whole entry): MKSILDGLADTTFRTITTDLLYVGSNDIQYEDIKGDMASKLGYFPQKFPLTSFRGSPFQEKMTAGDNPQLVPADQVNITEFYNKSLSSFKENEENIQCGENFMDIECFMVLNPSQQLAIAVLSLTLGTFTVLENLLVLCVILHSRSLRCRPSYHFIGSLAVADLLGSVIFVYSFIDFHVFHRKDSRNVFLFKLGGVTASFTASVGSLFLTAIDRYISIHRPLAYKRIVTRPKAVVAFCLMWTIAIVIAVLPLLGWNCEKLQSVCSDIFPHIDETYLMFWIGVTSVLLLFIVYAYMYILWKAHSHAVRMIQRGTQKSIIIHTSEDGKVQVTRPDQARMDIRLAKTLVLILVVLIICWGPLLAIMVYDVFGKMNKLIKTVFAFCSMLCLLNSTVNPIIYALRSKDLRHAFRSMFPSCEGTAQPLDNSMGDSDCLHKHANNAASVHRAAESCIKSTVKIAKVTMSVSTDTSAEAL

CC(C)C(NC(=O)c1nn(CC2CCCCC2)c2ccccc12)C(N)=O (stereo not shown)
Ki [1]: 0.145 nM | No. of intoxications ([2]; 139 intoxication samples of the prospective study): 33 | Percentage in % ([2]; proportion of 139 intoxications in which the substance was detected): 24% | G total (risk score) ([3]; G1+G2+G3, higher value = greater toxicological risk): 7.2 | G2 ([3]; mean Poison Severity Score (PSS) of all intoxications with the SCRA): 2.1 | G3 ([3]; mean Toxicological Significance Score (TSS) of all intoxications with the SCRA): 2.3 | G1 ([3]; proportion in intoxication cases relative to prevalence in routine serum/blood and urine samples per quarter, 2013–2021, >1 over‐represented in intoxications): 2.8 | PSS ([4]; intoxication case A): 3 | Recorded symptoms ([4]; intoxication case A, 3‐MMC also present): severe bradycardia (35 bpm/minutes) | Recorded symptoms ([4]; intoxication case A, 3‐MMC also present, listed as AB-CHMINACA): bradycardia (35 bpm/min), seizure, hypokalaemia | PSS ([4]; intoxication case B): 2 | Recorded symptoms ([4]; intoxication case B, four other SCRAs at very low concentrations): disorientation and miosis | EC50 ([5]; read-out: βarr2 assay EC50 [nM] (95% CI)): 3.45 nM | βarr2 assay Emax [%] (95% CI) ([5]; relative to CP‐55940, originally normalised to JWH‐018, corrected with factor 0.3268): 1195 ^a (1097–1331) % | EC50 [6]: 5.09 nM | Emax ([6]; read-out: [35S]‐GTPγS assay Emax [%] (95% CI)): 124%

Reference: publication PMC12980303, “Development of a novel risk score reflecting the relative harm potential of synthetic cannabinoids based on prevalence estimates, well‐documented intoxication cases and basic pharmacological data” (Addiction (Abingdon, England), 2025)
